Here are results for 16 molecules from patent US20260078119A1, “DEGRADER COMPOUNDS AND USES THEREOF” (Bristol-Myers Squibb Company, priority 2024, published 2026).

Each structure is given as a SMILES string.

One assay addresses T1, FAK (Homo sapiens, UniProt Q05397).
T1 construct: homozygous knock-in of a HiBiT tag (Promega Corporation, Madison, WI) to the C-terminus of the FAK gene in its natural genomic locus; endogenous in cells; host or cells: JHH-4-FAK-HiBiT clone d01 (CRISPR-Cas9 knock-in at the endogenous locus)
Kind of assay: FAK-HiBiT Degradation Assay. Format: cell-based. The following applies: for DC50: JHH-4-FAK-HiBiT clone d01 cells, two hours incubation, 10-point dose response, 3-fold dilution starting at 1 μM, Nano-Glo HiBiT luminescence, read-out: FAK HiBiT EC50; for FAK HiBiT Ymin: lower limit of the four parameter fit (value A), Ymax derived using DMSO control, JHH-4-FAK-HiBiT cells, two hours. In outline:
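Degradation read out by HiBiT lytic luminescence after 2 h compound exposure (top concentration 1 μM, 3-fold, 10 points) in JHH-4 clone d01 bearing endogenous FAK-HiBiT knock-in. Four-parameter logistic fit gave EC50 and Ymin; DMSO wells defined Ymax.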

In a further assay the test system is CAL-51 cells. In words: CAL-51 Cell Proliferation Assay. The class given is cell-based. The settings on record: for EC50: Homo sapiens, 120 hours incubation, 10-point dose response, 4-fold dilutions starting at 10 μM, Cell-Titer-Glo, read-out: CAL-51 Prolif EC50; for CAL-51 Prolif Ymin: minimal percent of DMSO control observed in the concentrations tested (Ymin-obs), 120 hours. The gist of the method:
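EC50 comes from a four-parameter logistic fit of blank-corrected, DMSO-normalised CellTiter-Glo signal after 120 h growth (37 °C, 350 cells/well, RPMI complete medium). Compounds ran as 10-point 4-fold series starting at 10 μM, duplicate, 0.1% DMSO. Ymin-obs records the minimal percent of DMSO control observed.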

T1 sequence (Q05397 whole entry): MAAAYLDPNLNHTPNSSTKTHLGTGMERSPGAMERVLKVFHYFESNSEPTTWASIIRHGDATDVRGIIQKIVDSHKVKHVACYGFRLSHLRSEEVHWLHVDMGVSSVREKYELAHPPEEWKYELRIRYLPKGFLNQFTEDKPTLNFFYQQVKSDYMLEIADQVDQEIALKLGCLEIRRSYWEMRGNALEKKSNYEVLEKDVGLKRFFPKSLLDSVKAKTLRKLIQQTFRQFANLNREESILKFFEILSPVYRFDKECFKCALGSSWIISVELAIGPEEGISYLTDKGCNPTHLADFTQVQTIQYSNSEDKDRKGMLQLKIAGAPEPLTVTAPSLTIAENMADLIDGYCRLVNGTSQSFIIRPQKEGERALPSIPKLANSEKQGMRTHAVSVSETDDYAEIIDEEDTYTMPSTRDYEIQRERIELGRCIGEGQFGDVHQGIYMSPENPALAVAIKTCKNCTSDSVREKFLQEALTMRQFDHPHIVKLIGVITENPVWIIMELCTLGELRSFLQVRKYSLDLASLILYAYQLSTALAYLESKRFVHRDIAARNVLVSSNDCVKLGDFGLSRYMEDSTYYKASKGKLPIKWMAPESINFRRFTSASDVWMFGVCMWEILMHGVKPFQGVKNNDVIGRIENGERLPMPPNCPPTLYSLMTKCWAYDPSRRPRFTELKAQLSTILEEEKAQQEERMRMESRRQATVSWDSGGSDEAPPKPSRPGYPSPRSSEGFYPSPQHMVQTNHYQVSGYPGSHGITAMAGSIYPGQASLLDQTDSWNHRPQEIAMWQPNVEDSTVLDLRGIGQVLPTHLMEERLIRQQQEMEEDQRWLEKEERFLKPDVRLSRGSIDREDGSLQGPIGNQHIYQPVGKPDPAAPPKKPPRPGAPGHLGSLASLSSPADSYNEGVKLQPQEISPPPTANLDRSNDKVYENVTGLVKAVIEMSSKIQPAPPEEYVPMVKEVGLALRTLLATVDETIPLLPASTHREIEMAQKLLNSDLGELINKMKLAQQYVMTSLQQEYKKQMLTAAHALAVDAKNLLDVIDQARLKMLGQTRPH

On to `CCOc1cnc(-c2cc(N3CC(F)C3)nc3c2cnn3Cc2ccc3c(c2)CN([C@H]2CCC(=O)NC2=O)C3=O)c(C)c1` [Example 82, (3S)-3-(5-{[4-(5-ethoxy-3-methylpyridin-2-yl)-6-(3-fluoroazetidin-1-yl)-1H-pyrazolo[3,4-b]pyridin-1-yl]methyl}-1-oxo-2,3-dihydro-1H-isoindol-2-yl)piperidine-2,6-dione], for which, at FAK, the DC50 was determined as 9.61 nM and the “FAK HiBiT Ymin” value is given as 8.29. Moreover, in the assay with CAL-51 cells, the EC50 was found to be 4.19 nM and the “CAL-51 Prolif Ymin” value is listed as 29.74.

Regarding `Cc1nc2c(-c3ccc(F)cc3F)cc(N3CC(F)C3)nc2n1Cc1ccc2c(c1)CN(C1CCC(=O)NC1=O)C2=O` (stereo not shown) [Example 23, 3-(5-((7-(2,4-difluorophenyl)-5-(3-fluoroazetidin-1-yl)-2-methyl-3H-imidazo[4,5-b]pyridin-3-yl)methyl)-1-oxoisoindolin-2-yl)piperidine-2,6-dione], at FAK, the DC50 amounted to 1.03 nM and the “FAK HiBiT Ymin” value is reported as 7.69. For the same molecule, in the assay on CAL-51 cells, the EC50 turned out to be 0.62 nM and the “CAL-51 Prolif Ymin” value worked out at 20.44.

On to `CN(C)c1cc(-c2ccc(C#N)cc2Cl)c2cnn(Cc3ccc4c(c3)CN(C3CCC(=O)NC3=O)C4=O)c2n1` (stereo not shown) [Example 12, 3-chloro-4-[6-(dimethylamino)-1-{[2-(2,6-dioxopiperidin-3-yl)-1-oxo-2,3-dihydro-1H-isoindol-5-yl]methyl}-1H-pyrazolo[3,4-b]pyridin-4-yl]benzonitrile], for which, at FAK, the DC50 is 0.67 nM and the “FAK HiBiT Ymin” value was determined as 7.50. Also, in the assay on CAL-51 cells, the half-maximal effective concentration (EC50) came out at 0.99 nM and the “CAL-51 Prolif Ymin” value is reported as 23.97.

In the case of `Cc1cc(C(F)(F)F)cnc1-c1cc(N2CC[C@H](O)C2)nc2c1cnn2Cc1ccc2c(c1)CN([C@H]1CCC(=O)NC1=O)C2=O` [Example 110, (3S)-3-[5-({6-[(3S)-3-hydroxypyrrolidin-1-yl]-4-[3-methyl-5-(trifluoromethyl)pyridin-2-yl]-1H-pyrazolo[3,4-b]pyridin-1-yl}methyl)-1-oxo-2,3-dihydro-1H-isoindol-2-yl]piperidine-2,6-dione], on FAK, the DC50 was 45.3 nM and the “FAK HiBiT Ymin” value turned out to be 14.00. Further, in the assay on CAL-51 cells, the EC50 stood at 186 nM and the “CAL-51 Prolif Ymin” value is on record as 10.20.

For the molecule `Cc1cnc(-c2cc(N3CC(F)C3)nc3c2cnn3Cc2ccc3c(c2)CN(C2CCC(=O)NC2=O)C3=O)c(C)c1` (stereo not shown) [Example 85, 3-(5-{[4-(3,5-dimethylpyridin-2-yl)-6-(3-fluoroazetidin-1-yl)-1H-pyrazolo[3,4-b]pyridin-1-yl]methyl}-1-oxo-2,3-dihydro-1H-isoindol-2-yl)piperidine-2,6-dione], on FAK, the DC50 was determined as 11.1 nM and the “FAK HiBiT Ymin” value worked out at 11.71. Further, in the assay with CAL-51 cells, the half-maximal effective concentration (EC50) was found to be 6.82 nM and the “CAL-51 Prolif Ymin” value is reported as 35.10.

For the molecule `Cc1cnc(-c2cc(N3CC(F)C3)nc3c2cnn3Cc2ccc3c(c2)CN(C2CCC(=O)NC2=O)C3=O)c(Cl)c1` (stereo not shown) [Example 57, 3-(5-{[4-(3-chloro-5-methylpyridin-2-yl)-6-(3-fluoroazetidin-1-yl)-1H-pyrazolo[3,4-b]pyridin-1-yl]methyl}-1-oxo-2,3-dihydro-1H-isoindol-2-yl)piperidine-2,6-dione], at FAK, the DC50 is 3.41 nM and the “FAK HiBiT Ymin” value stood at 8.26. Further, in the assay with CAL-51 cells, the EC50 came out at 1.51 nM and the “CAL-51 Prolif Ymin” value was determined as 25.51.

Turning to `O=C1CC[C@H](N2Cc3cc(Cn4ncc5c(-c6ncc(C(F)(F)F)cc6Cl)c(Cl)c(N6CC(F)C6)nc54)ccc3C2=O)C(=O)N1` [Example 2, (3S)-3-[5-({5-chloro-4-[3-chloro-5-(trifluoromethyl)pyridin-2-yl]-6-(3-fluoroazetidin-1-yl)-1H-pyrazolo[3,4-b]pyridin-1-yl}methyl)-1-oxo-2,3-dihydro-1H-isoindol-2-yl]piperidine-2,6-dione], on FAK, the DC50 is 0.24 nM and the “FAK HiBiT Ymin” value amounted to 7.25. In the assay with CAL-51 cells, the concentration giving a half-maximal response (EC50) worked out at 0.43 nM and the “CAL-51 Prolif Ymin” value is 14.10.

`Cc1cc(F)cnc1-c1cc(N2CC[C@H](O)C2)nc2c1cnn2Cc1ccc2c(c1)CN([C@H]1CCC(=O)NC1=O)C2=O` [Example 125, (3S)-3-(5-{[4-(5-fluoro-3-methylpyridin-2-yl)-6-[(3S)-3-hydroxypyrrolidin-1-yl]-1H-pyrazolo[3,4-b]pyridin-1-yl]methyl}-1-oxo-2,3-dihydro-1H-isoindol-2-yl)piperidine-2,6-dione]: on FAK, the DC50 worked out at 149 nM and the “FAK HiBiT Ymin” value is 29.00. Moreover, in the assay with CAL-51 cells, the EC50 was determined as 262 nM and the “CAL-51 Prolif Ymin” value was found to be 34.48.

Regarding `CCOc1ccc(-c2cc(N3CC[C@](C)(O)C3)nc3c2cnn3Cc2ccc3c(c2)CN(C2CCC(=O)NC2=O)C3=O)c(Cl)c1` (stereo partly drawn) [Example 96, 3-(5-{[4-(2-chloro-4-ethoxyphenyl)-6-[(3S)-3-hydroxy-3-methylpyrrolidin-1-yl]-1H-pyrazolo[3,4-b]pyridin-1-yl]methyl}-1-oxo-2,3-dihydro-1H-isoindol-2-yl)piperidine-2,6-dione], on FAK, the DC50 turned out to be 20 nM and the “FAK HiBiT Ymin” value is given as 17.46. Besides, in the assay on CAL-51 cells, the EC50 amounted to 1.88 nM and the “CAL-51 Prolif Ymin” value is reported as 45.73.

As for `CCc1cc2c(-c3ncc(C(F)(F)F)cc3Cl)cc(N3CC(F)C3)nc2n1Cc1ccc2c(c1)CN(C1CCC(=O)NC1=O)C2=O` (stereo not shown) [Example 16, 3-(5-((4-(3-chloro-5-(trifluoromethyl)pyridin-2-yl)-2-ethyl-6-(3-fluoroazetidin-1-yl)-1H-pyrrolo[2,3-b]pyridin-1-yl)methyl)-1-oxoisoindolin-2-yl)piperidine-2,6-dione], at FAK, the DC50 was not below 1000 nM and the “FAK HiBiT Ymin” value is on record as 96.37. In the assay with CAL-51 cells, the EC50 amounted to 298 nM and the “CAL-51 Prolif Ymin” value was 81.53.

In the case of `O=C1CCC(N2Cc3cc(Cn4ncc5c(-c6ncc(Cl)cc6F)cc(N6CC(F)C6)nc54)ccc3C2=O)C(=O)N1` (stereo not shown) [Example 90, 3-(5-{[4-(5-chloro-3-fluoropyridin-2-yl)-6-(3-fluoroazetidin-1-yl)-1H-pyrazolo[3,4-b]pyridin-1-yl]methyl}-1-oxo-2,3-dihydro-1H-isoindol-2-yl)piperidine-2,6-dione], at FAK, the DC50 was found to be 13.6 nM and the “FAK HiBiT Ymin” value is recorded as 15.97. Also, in the assay on CAL-51 cells, the EC50 stood at 10.4 nM and the “CAL-51 Prolif Ymin” value is 37.96.

For the molecule `CN(C)c1cc(-c2ncc(C(F)(F)F)cc2Cl)c2cnn(Cc3ccc4c(c3)CN(C3CCC(=O)NC3=O)C4=O)c2n1` (stereo not shown) [Example 5, 3-[5-({4-[3-chloro-5-(trifluoromethyl)pyridin-2-yl]-6-(dimethylamino)-1H-pyrazolo[3,4-b]pyridin-1-yl}methyl)-1-oxo-2,3-dihydro-1H-isoindol-2-yl]piperidine-2,6-dione], at FAK, the DC50 came to 0.42 nM and the “FAK HiBiT Ymin” value came out at 6.93. Besides, in the assay on CAL-51 cells, the EC50 was found to be 0.36 nM and the “CAL-51 Prolif Ymin” value is reported as 29.57.

For the molecule `O=C1CC[C@H](N2Cc3cc(Cn4ncc5c(-c6ncc(C(F)(F)F)cc6Cl)cc(N6CCC(O)C6)nc54)ccc3C2=O)C(=O)N1` (stereo in doubt) [Example 106, (3S)-3-[5-({4-[3-chloro-5-(trifluoromethyl)pyridin-2-yl]-6-[(3R)-3-hydroxypyrrolidin-1-yl]-1H-pyrazolo[3,4-b]pyridin-1-yl}methyl)-1-oxo-2,3-dihydro-1H-isoindol-2-yl]piperidine-2,6-dione], on FAK, the DC50 came to 37.9 nM and the “FAK HiBiT Ymin” value is listed as 17.24. Also, in the assay with CAL-51 cells, the EC50 was determined as 54.6 nM and the “CAL-51 Prolif Ymin” value is listed as 53.56.

As for `O=C1CC[C@H](N2Cc3cc(Cn4ncc5c(-c6ncc(F)cc6Cl)cc(N6CC(F)C6)nc54)ccc3C2=O)C(=O)N1` [Example 51, (3S)-3-(5-{[4-(3-chloro-5-fluoropyridin-2-yl)-6-(3-fluoroazetidin-1-yl)-1H-pyrazolo[3,4-b]pyridin-1-yl]methyl}-1-oxo-2,3-dihydro-1H-isoindol-2-yl)piperidine-2,6-dione], at FAK, the DC50 was determined as 2.23 nM and the “FAK HiBiT Ymin” value was 10.32. Besides, in the assay on CAL-51 cells, the EC50 was 1.49 nM and the “CAL-51 Prolif Ymin” value was 30.14.

`O=C1CCC(N2Cc3cc(Cn4ncc5c(-c6ncc(C(F)(F)F)cc6Cl)cc(N[C@@H]6CCOC6)nc54)ccc3C2=O)C(=O)N1` (stereo partly drawn) [Example 133, 3-[5-({4-[3-chloro-5-(trifluoromethyl)pyridin-2-yl]-6-{[(3R)-oxolan-3-yl]amino}-1H-pyrazolo[3,4-b]pyridin-1-yl}methyl)-1-oxo-2,3-dihydro-1H-isoindol-2-yl]piperidine-2,6-dione]: on FAK, the DC50 is not below 1000 nM and the “FAK HiBiT Ymin” value is reported as 82.45. Also, in the assay on CAL-51 cells, the EC50 amounted to 23.3 nM and the “CAL-51 Prolif Ymin” value worked out at 84.63.

Consider `O=C1CC[C@H](N2Cc3cc(Cn4ncc5c(-c6ncc(C(F)(F)F)cc6Cl)cc(NCCF)nc54)ccc3C2=O)C(=O)N1` [Example 146, (S)-3-(5-((4-(3-chloro-5-(trifluoromethyl)pyridin-2-yl)-6-((2-fluoroethyl)amino)-1H-pyrazolo[3,4-b]pyridin-1-yl)methyl)-1-oxoisoindolin-2-yl)piperidine-2,6-dione], for which, at FAK, the DC50 was 13.1 nM and the “FAK HiBiT Ymin” value is on record as 22.43. In the assay with CAL-51 cells, the EC50 amounted to 9.4 nM and the “CAL-51 Prolif Ymin” value was determined as 57.23.

The term EC50 denotes the concentration that produces a half-maximal response.
